Data: patent publication US20260364028A1, “COMBINATION TREATMENTS FOR DEPRESSION AND OTHER DISORDERS” (NEURAWELL THERAPEUTICS, priority 2023, published 2026)
Like-named read-outs stand apart in the source and are kept apart here.

Assays:
[1] = plasma, cited from earlier work
[2] = test system: systolic or diastolic blood pressure; settings: cited from earlier work
[3] = test system: tyramine pressor response; settings: cited from earlier work; for TSF High / TSF Low: literature-reported
Monoamine Oxidase MAO-A = target: T1, Monoamine Oxidase MAO-A (Homo sapiens, UniProt P21397); assay: Monoamine oxidase MAO-A inhibition enzyme assay (kynuramine, spectrofluorimetric); type: biochemical; settings: for interference with the inhibition of MAO-A by phenelzine (in words): beta blocker in presence of phenelzine […] nM and 150 nM; for inhibition at 2 µM / inhibitory activity of MAO-A (in words): beta blocker alone; for inhibitory activity of MAO-A (in words): significant = ≥50% inhibition
T1 construct: host or cells: insect cells (recombinant)
T1 sequence (P21397 1-527): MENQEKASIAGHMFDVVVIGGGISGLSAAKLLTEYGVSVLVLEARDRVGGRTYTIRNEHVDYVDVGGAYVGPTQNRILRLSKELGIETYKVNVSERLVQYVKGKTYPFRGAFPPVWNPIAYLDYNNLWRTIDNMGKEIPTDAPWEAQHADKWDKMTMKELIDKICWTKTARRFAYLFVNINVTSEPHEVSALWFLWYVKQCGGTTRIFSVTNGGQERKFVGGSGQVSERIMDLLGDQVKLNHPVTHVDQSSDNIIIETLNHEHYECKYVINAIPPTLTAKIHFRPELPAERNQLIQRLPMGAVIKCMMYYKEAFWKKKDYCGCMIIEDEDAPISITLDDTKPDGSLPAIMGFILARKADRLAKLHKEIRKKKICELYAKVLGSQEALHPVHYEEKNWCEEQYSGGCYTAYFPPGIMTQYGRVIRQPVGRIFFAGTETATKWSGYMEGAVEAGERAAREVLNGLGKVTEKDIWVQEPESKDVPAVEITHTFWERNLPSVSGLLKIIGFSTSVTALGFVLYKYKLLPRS

Monoamine Oxidase MAO-B = target: T2, Monoamine Oxidase MAO-B (Homo sapiens, UniProt P27338); assay: Monoamine oxidase MAO-B inhibition enzyme assay (kynuramine, spectrofluorimetric); type: biochemical; settings: for inhibition at 2 µM: read-out: % MAO-B inhibition
T2 construct: host or cells: insect cells (recombinant)
T2 sequence (P27338 1-520): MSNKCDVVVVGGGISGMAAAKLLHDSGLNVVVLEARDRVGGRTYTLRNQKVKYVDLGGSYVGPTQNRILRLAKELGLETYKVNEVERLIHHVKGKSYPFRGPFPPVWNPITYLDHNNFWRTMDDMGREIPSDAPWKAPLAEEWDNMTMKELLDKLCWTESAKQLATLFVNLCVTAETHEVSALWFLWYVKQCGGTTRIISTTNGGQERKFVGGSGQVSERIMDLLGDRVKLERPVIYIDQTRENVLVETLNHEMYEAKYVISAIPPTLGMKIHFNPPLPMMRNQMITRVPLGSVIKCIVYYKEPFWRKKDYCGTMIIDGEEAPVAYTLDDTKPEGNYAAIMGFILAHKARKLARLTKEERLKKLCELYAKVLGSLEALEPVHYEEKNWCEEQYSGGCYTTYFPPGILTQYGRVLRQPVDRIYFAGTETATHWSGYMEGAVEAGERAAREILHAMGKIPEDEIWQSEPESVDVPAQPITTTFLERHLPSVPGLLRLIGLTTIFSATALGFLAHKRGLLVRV

depression = settings: meta-analysis of 14 antidepressants and placebo; cited from earlier work
[4] = typical circumstances, no MAO inhibition; cited from earlier work
[5] = Tranylcypromine 20 mg/d with placebo (no beta blocker)
[6] = Phenelzine 60 mg/d with placebo (no beta blocker)
[7] = Selegiline 10 mg/d with placebo (no beta blocker)

Row | SMILES | half-life [1] | interference with the inhibition of MAO-A by phenelzine (in words) (Monoamine Oxidase MAO-A) | inhibition at 2 µM (Monoamine Oxidase MAO-A; role: inhibitor) [%] | inhibitory activity of MAO-A (in words) (Monoamine Oxidase MAO-A; role: inhibitor) | inhibitory activity of MAO-B (in words) (Monoamine Oxidase MAO-B) | interference with the inhibition of MAO-B by phenelzine (in words) (Monoamine Oxidase MAO-B) | inhibition at 2 µM (Monoamine Oxidase MAO-B) [%] | further results
1 | N[C@@H]1C[C@H]1c1ccccc1 (relative stereo) [Tranylcypromine] | approximately 2.5 hours |  |  |  |  |  |  | patients with significant transient blood pressure increases (20 mmHg or more) immediately after taking [2]: approximately 50%; TSF High [3, 5]: 55; TSF Low [3, 5]: 30; TSF ([3]; tranylcypromine at 20 mg/day): 55
2 | CC(C)NCC(O)COc1ccc(COCCOC(C)C)cc1 (centres unmarked) [Bisoprolol] | 9 to 12 h | no interference was observed | -5 | no significant inhibitory activity | no significant inhibitory activity | no interference was observed | 13 | 
3 | COc1ccccc1OCCNCC(O)COc1cccc2[nH]c3ccccc3c12 (centres unmarked) [Carvedilol] |  | no interference was observed | 4 | no significant inhibitory activity | no significant inhibitory activity | no interference was observed | 23 | 
4 | COC(=O)CCc1ccc(OCC(O)CNC(C)C)cc1 (centres unmarked) [Esmolol] | approximately 9 minutes |  |  |  |  |  |  | 
5 | Cc1cc(C(=O)NNCc2ccccc2)no1 [Isocarboxazide] |  |  |  |  |  |  |  | % MAO-A inhibition (Monoamine Oxidase MAO-A; role: inhibitor, isocarboxazid 10 μM): 91%; % MAO-B inhibition (Monoamine Oxidase MAO-B): 98%
6 | NNCCc1ccccc1 [Phenelzine] | approximately 11.6 hours |  |  |  |  |  |  | efficacy compared to all other treatments (in words) (depression): superior efficacy compared to all other treatments; patients with significant transient blood pressure increases (20 mmHg or more) immediately after taking [2]: approximately 50%; TSF High [3, 6]: 30; TSF Low [3, 6]: 9; TSF ([3]; phenelzine at 45 mg/day): 13.3
7 | CC(C)NCC(O)COc1cccc2[nH]ccc12 (centres unmarked) [Pindolol, 1-(Indol-4-yloxy)-3-(isopropylamino)-2-propanol] | 3 to 4 h | no interference was observed | -1 | no significant inhibitory activity | no significant inhibitory activity | no interference was observed | -5 | 
8 | C#CCN(C)[C@H](C)Cc1ccccc1 [Selegiline] |  |  |  |  |  |  |  | half-life ([1]; human): approximately 10 hours; TSF High [3, 7]: 4; TSF Low [3, 7]: 3
9 | NCCc1ccc(O)cc1 [tyramine] |  |  |  |  |  |  |  | dietary tyramine ending up in systemic circulation [4]: less than 1%
